Test: Fuel solubility: miscibility of blends with commercial diesel
Type: physicochemical
Description: Fuel solubility is a primary concern for diesel fuel applications. Not all highly polar oxygenates have good solubility in the current commercial diesel fuels.

Miscibility of blend with commercial diesel (5 vol % blend with commercial diesel): completely miscible | Miscibility of blend with commercial diesel (25 vol % blend with commercial diesel): phase separation occurs | Miscibility of blend with commercial diesel (40 vol % blend with commercial diesel): phase separation occurs
Structure (SMILES): CCOCc1ccc(C=O)o1 [EMF, 5-(ethoxymethyl)furfural]
